Assay results: patent publication US20040259818A1, “Glucoronide adduct as gaba ligand” (priority 2001, published 2004)
pKi: −log10 of the molar value.

Key:
[1] = biological target: T1, α3 subunit of the human GABAA receptor relative to α1 subunit (Homo sapiens, UniProt P18507+P34903); assay: potentiation of the GABA EC20 response in stably transfected recombinant cell lines; type: cell-based; conditions: stably transfected recombinant cell lines expressing α3 vs α1 subunit of the human GABAA receptor
T1 construct: expressed in transfected cells; host or cells: stably transfected eukaryotic cells, typically mouse Ltk- fibroblasts
T1 sequence (P34903 29-492): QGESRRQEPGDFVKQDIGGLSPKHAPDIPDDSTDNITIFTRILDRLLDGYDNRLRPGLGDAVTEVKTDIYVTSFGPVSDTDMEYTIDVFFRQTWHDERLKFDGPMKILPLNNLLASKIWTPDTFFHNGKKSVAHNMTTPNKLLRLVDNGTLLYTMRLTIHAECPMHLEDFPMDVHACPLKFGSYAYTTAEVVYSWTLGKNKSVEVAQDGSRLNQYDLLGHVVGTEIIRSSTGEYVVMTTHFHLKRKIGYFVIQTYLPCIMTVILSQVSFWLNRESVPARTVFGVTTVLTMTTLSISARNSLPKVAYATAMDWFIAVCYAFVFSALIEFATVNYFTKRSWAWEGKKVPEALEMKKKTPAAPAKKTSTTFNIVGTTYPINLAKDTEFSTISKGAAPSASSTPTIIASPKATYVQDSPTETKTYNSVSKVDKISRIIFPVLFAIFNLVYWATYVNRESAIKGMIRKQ
T1 sequence (P28472 26-473 partner): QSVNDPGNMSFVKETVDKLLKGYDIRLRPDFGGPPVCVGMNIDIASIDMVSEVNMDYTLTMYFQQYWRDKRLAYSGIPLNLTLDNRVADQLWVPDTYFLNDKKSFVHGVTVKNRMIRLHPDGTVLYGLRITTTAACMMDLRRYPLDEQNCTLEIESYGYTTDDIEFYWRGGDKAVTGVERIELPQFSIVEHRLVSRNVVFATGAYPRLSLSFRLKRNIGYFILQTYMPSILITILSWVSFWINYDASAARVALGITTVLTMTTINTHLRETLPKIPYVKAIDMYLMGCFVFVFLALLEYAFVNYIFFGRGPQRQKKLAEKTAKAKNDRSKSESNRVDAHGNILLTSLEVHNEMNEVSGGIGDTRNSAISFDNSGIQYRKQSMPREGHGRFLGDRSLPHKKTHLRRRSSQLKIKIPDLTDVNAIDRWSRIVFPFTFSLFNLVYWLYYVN
T1 sequence (P18507 40-467 limits assumed): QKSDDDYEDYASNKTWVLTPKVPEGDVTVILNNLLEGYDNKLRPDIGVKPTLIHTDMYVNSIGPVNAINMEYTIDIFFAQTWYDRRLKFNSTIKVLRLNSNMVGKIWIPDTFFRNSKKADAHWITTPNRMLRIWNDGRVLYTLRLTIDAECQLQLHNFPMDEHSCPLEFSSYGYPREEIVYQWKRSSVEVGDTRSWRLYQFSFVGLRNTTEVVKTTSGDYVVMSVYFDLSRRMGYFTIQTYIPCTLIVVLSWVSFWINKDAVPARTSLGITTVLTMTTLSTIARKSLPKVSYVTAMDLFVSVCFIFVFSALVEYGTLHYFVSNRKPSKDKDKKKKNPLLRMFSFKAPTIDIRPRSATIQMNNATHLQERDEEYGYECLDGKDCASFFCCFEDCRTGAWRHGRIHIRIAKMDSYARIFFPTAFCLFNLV
Description: The potentiation of the GABA EC20 response in stably transfected cell lines expressing the α3 and α1 subunits of the human GABAA receptor can conveniently be measured by procedures analogous to the protocol described in Wafford et al., Mol. Pharmacol., 1996, 50, 670-678. The procedure will suitably be carried out utilising cultures of stably transfected eukaryotic cells, typically of stably transfected mouse Ltk^− fibroblast cells.

[2] = response sensitivity (chain-pulling) test; conditions: in vivo
[3] = biological target: α2 and/or α3 subunit of the human GABAA receptor; assay: [3H]-flumazenil displacement binding assay, α2 and/or α3 subunit; conditions: displacement of [3H]-flumazenil; human GABAA receptors stably expressed in Ltk- cells; read-out: binding affinity (Ki) for the α2 and/or α3 subunit
Description: Assay buffer: 10 mM KH2PO4, 100 mM KCl, pH 7.4 at room temperature.
Flunitrazepam 100 μM in assay buffer.
Cells resuspended in assay buffer (1 tray to 10 ml).
Supernatant is removed from cells. PBS (approximately 20 ml) is added. The cells are scraped and placed in a 50 ml centrifuge tube. The procedure is repeated with a further 10 ml of PBS to ensure that most of the cells are removed. The cells are pelleted by centrifuging for 20 min at 3000 rpm in a benchtop centrifuge, and then frozen if desired. The pellets are resuspended in 10 ml of buffer per tray (25 cm×25 cm) of cells.
Can be carried out in deep 96-well plates or in tubes. Each tube contains:
50 μl of buffer or solvent carrier (e.g. 10% DMSO) if compounds are dissolved in 10% DMSO (total); test compound or flunitrazepam (to determine non-specific binding), 10 μM final concentration.
Assays are incubated for 1 hour at 40° C., then filtered using either a Tomtec or Brandel cell harvester onto GF/B filters followed by 3×3 ml washes with ice cold assay buffer. Filters are dried and counted by liquid scintillation counting. […] Binding parameters are determined by non-linear least squares regression analysis, from which the inhibition constant Ki can be calculated for each test compound.

[4] = brain penetration inferred from behavioural effects; type: in vivo; conditions: inferred because it elicits behavioural effects
Description: Since it elicits behavioural effects, the triazolo-pyridazine derivative of the invention plainly is brain-penetrant; in other words, it is capable of crossing the so-called “blood-brain barrier”. Advantageously, the triazolo-pyridazine derivative of the invention is capable of exerting its beneficial therapeutic action following administration by the oral route.

elevated plus maze test = conditions: in vivo
[5] = conditioned suppression of drinking test; conditions: in vivo
α3β3γ2 GABAA/BzR = α3β3γ2 GABAA/BzR (Homo sapiens, UniProt P18507+P34903); assay: biochemical
Chain of α3β3γ2 GABAA/BzR (P18507 whole entry, looked up): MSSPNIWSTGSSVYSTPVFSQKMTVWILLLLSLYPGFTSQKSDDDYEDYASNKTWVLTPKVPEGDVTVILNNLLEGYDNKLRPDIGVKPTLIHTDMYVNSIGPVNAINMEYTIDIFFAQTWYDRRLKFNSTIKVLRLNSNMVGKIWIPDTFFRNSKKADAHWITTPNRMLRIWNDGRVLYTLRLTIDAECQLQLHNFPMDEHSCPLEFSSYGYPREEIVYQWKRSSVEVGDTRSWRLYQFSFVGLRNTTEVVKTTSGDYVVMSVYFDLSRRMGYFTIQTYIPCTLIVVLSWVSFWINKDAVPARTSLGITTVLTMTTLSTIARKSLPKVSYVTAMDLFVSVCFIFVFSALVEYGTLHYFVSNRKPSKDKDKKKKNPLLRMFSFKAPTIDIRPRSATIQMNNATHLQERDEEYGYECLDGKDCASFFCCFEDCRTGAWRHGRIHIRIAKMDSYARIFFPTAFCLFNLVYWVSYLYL
Chain of α3β3γ2 GABAA/BzR (P34903 whole entry, looked up): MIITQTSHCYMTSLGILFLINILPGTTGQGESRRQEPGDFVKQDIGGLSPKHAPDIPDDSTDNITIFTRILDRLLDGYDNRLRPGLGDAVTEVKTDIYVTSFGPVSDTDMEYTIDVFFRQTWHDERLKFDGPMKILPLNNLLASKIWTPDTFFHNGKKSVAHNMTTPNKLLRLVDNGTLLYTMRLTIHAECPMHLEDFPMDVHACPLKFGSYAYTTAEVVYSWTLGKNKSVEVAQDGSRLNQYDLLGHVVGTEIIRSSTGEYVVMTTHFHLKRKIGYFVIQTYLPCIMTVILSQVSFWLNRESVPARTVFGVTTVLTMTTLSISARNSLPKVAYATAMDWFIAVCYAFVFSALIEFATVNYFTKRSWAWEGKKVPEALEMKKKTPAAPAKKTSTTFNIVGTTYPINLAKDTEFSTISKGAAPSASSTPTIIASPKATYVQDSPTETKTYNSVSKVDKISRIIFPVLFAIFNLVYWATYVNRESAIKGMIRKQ

CCn1ncnc1COc1nn2c(-c3ccccc3F)nnc2cc1C(C)(C)C [triazolo-pyridazine derivative, 7-(1,1-dimethylethyl)-6-(2-ethyl-2H-1,2,4-triazol-3-ylmethoxy)-3-(2-fluorophenyl)-1,2,4-triazolo[4,3-b]pyridazine]
potentiation of the GABA EC20 response, α3 relative to α1 [1]: selective potentiation | sedation, response sensitivity (chain-pulling) test [2]: substantially non-sedating | pKi [3]: > 9.00 | brain penetration (crossing the blood-brain barrier) [4]: brain-penetrant | anxiolytic activity, elevated plus maze (elevated plus maze test): positive response | anxiolytic activity, conditioned suppression of drinking [5]: positive response | pKi (α3β3γ2 GABAA/BzR): > 9.00
